Test results taken from PubChem BioAssay (NCI).
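Method: 48-hour compound exposure of cells in 96-well plates, five concentrations, linear interpolation of endpoints. TGI denotes the concentration required for complete inhibition of growth.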

Tests used:
Assay in all cases: inhibition of tumour cell growth, NCI panel, 48 h
A498 renal = system: A498 renal
COLO 205 colon = system: COLO 205 colon
EKVX NSCLC = system: EKVX NSCLC
HCT-116 colon = system: HCT-116 colon
IGROV1 ovarian = system: IGROV1 ovarian
KM12 colon = system: KM12 colon
MDA-MB-231 breast = system: MDA-MB-231 breast
MDA-N = system: MDA-N
MOLT-4 leukemia = system: MOLT-4 leukemia
NCI-H23 lung = system: NCI-H23 lung
PC-3 prostate = system: PC-3 prostate
RPMI-8226 leukemia = system: RPMI-8226 leukemia
SF-295 CNS = system: SF-295 CNS
SK-MEL-28 melanoma = system: SK-MEL-28 melanoma
SK-OV-3 ovarian = system: SK-OV-3 ovarian
SNB-19 CNS = system: SNB-19 CNS
SW-620 colon = system: SW-620 colon
T-47D breast = system: T-47D breast

Cc1cc(=O)[nH]c(NN2C(Cl)C(=O)C2c2ccc(Cl)cc2)n1 (stereo not given)
TGI (A498 renal): 53.6 µM
TGI (COLO 205 colon): 36.2 µM
TGI (EKVX NSCLC): 35 µM
TGI (HCT-116 colon): 31.1 µM
TGI (IGROV1 ovarian): 15.1 µM
TGI (KM12 colon): 16.1 µM
TGI (MDA-MB-231 breast): 72 µM
TGI (MDA-N): 72.6 µM
TGI (MOLT-4 leukemia): 22.7 µM
TGI (NCI-H23 lung): 39.1 µM
TGI (PC-3 prostate): > 100 µM
TGI (RPMI-8226 leukemia): 33.1 µM
TGI (SF-295 CNS): > 100 µM
TGI (SK-MEL-28 melanoma): 49.6 µM
TGI (SK-OV-3 ovarian): > 100 µM
TGI (SNB-19 CNS): 45.2 µM
TGI (SW-620 colon): > 71.7 µM
TGI (T-47D breast): 43.4 µM

COc1cc(/C=C2/CCS(=O)(=O)c3ccc(C)cc3C2=O)cc(OC)c1OC
TGI (A498 renal): 23.7 µM
TGI (COLO 205 colon): 16.9 µM
TGI (EKVX NSCLC): 30.2 µM
TGI (HCT-116 colon): 11.2 µM
TGI (IGROV1 ovarian): > 39.4 µM
TGI (KM12 colon): > 41.2 µM
TGI (MDA-MB-231 breast): 11.2 µM
TGI (MDA-N): > 33.3 µM
TGI (MOLT-4 leukemia): > 100 µM
TGI (NCI-H23 lung): > 36.2 µM
TGI (PC-3 prostate): > 100 µM
TGI (RPMI-8226 leukemia): 6.6 µM
TGI (SF-295 CNS): 42.1 µM
TGI (SK-MEL-28 melanoma): > 37.4 µM
TGI (SK-OV-3 ovarian): 37.8 µM
TGI (SNB-19 CNS): > 34.8 µM
TGI (SW-620 colon): > 45.4 µM
TGI (T-47D breast): > 52.7 µM

C1=NCCNCCN=Cc2ccc(cc2)OCc2cccc(n2)COc2ccc1cc2
TGI (A498 renal): > 100 µM
TGI (COLO 205 colon): > 100 µM
TGI (EKVX NSCLC): > 100 µM
TGI (HCT-116 colon): > 100 µM
TGI (IGROV1 ovarian): > 100 µM
TGI (KM12 colon): > 100 µM
TGI (MDA-MB-231 breast): > 100 µM
TGI (MDA-N): > 100 µM
TGI (MOLT-4 leukemia): > 100 µM
TGI (NCI-H23 lung): > 100 µM
TGI (PC-3 prostate): > 100 µM
TGI (RPMI-8226 leukemia): > 100 µM
TGI (SF-295 CNS): > 100 µM
TGI (SK-MEL-28 melanoma): > 100 µM
TGI (SK-OV-3 ovarian): > 100 µM
TGI (SNB-19 CNS): > 100 µM
TGI (SW-620 colon): > 100 µM
TGI (T-47D breast): > 100 µM

CC12Nc3ccccc3N1C(=O)c1ccccc12 (stereo not given)
TGI (A498 renal): > 100 µM
TGI (COLO 205 colon): > 100 µM
TGI (EKVX NSCLC): > 100 µM
TGI (HCT-116 colon): > 100 µM
TGI (IGROV1 ovarian): > 100 µM
TGI (KM12 colon): > 100 µM
TGI (MDA-MB-231 breast): > 100 µM
TGI (MDA-N): > 100 µM
TGI (MOLT-4 leukemia): > 100 µM
TGI (NCI-H23 lung): > 100 µM
TGI (PC-3 prostate): > 100 µM
TGI (RPMI-8226 leukemia): > 100 µM
TGI (SF-295 CNS): > 100 µM
TGI (SK-MEL-28 melanoma): > 100 µM
TGI (SK-OV-3 ovarian): > 100 µM
TGI (SNB-19 CNS): > 100 µM
TGI (SW-620 colon): > 100 µM
TGI (T-47D breast): > 100 µM

Cc1ccc(N2C(=O)C3c4[nH]c5ccccc5c4C4CCC(C(C)(C)C)CC4C3C2=O)cc1 (stereo not given)
TGI (A498 renal): 31.3 µM
TGI (COLO 205 colon): 22.5 µM
TGI (EKVX NSCLC): 42.4 µM
TGI (HCT-116 colon): 24.6 µM
TGI (IGROV1 ovarian): 25.2 µM
TGI (KM12 colon): 65 µM
TGI (MDA-MB-231 breast): 15.8 µM
TGI (MDA-N): 44.1 µM
TGI (MOLT-4 leukemia): 9.2 µM
TGI (NCI-H23 lung): 32.4 µM
TGI (PC-3 prostate): 31.8 µM
TGI (RPMI-8226 leukemia): > 41.5 µM
TGI (SF-295 CNS): 24.3 µM
TGI (SK-MEL-28 melanoma): 49 µM
TGI (SK-OV-3 ovarian): 28.2 µM
TGI (SNB-19 CNS): 21.2 µM
TGI (SW-620 colon): > 47.4 µM
TGI (T-47D breast): 36 µM

O=C(O[C@H]1[C@@H](O)[C@H](n2cnc3c(Cl)ncnc32)O[C@@H]1COC(c1ccccc1)(c1ccccc1)c1ccccc1)c1ccccc1
TGI (A498 renal): 31 µM
TGI (COLO 205 colon): 29.3 µM
TGI (EKVX NSCLC): 32.3 µM
TGI (HCT-116 colon): > 100 µM
TGI (IGROV1 ovarian): > 100 µM
TGI (KM12 colon): 41.7 µM
TGI (MDA-MB-231 breast): 51.1 µM
TGI (MDA-N): > 100 µM
TGI (MOLT-4 leukemia): 17.9 µM
TGI (NCI-H23 lung): > 100 µM
TGI (PC-3 prostate): 24.5 µM
TGI (RPMI-8226 leukemia): 5.39 µM
TGI (SF-295 CNS): 53.9 µM
TGI (SK-MEL-28 melanoma): > 100 µM
TGI (SK-OV-3 ovarian): > 100 µM
TGI (SNB-19 CNS): > 100 µM
TGI (SW-620 colon): > 100 µM
TGI (T-47D breast): 24.9 µM

CN(C(=O)Cc1cc(Cl)c(Cl)cc1N=C=S)[C@H]1CCCC[C@@H]1N1CCCC1
TGI (A498 renal): 27 µM
TGI (COLO 205 colon): 26.8 µM
TGI (EKVX NSCLC): 31.7 µM
TGI (HCT-116 colon): 21.7 µM
TGI (IGROV1 ovarian): 28.1 µM
TGI (KM12 colon): 29.7 µM
TGI (MDA-MB-231 breast): 28.6 µM
TGI (MDA-N): 28.1 µM
TGI (MOLT-4 leukemia): 14.2 µM
TGI (NCI-H23 lung): 30.5 µM
TGI (PC-3 prostate): 26.3 µM
TGI (RPMI-8226 leukemia): 28 µM
TGI (SF-295 CNS): 31.9 µM
TGI (SK-MEL-28 melanoma): 7.65 µM
TGI (SK-OV-3 ovarian): 32.3 µM
TGI (SNB-19 CNS): 27.4 µM
TGI (SW-620 colon): 23.6 µM
TGI (T-47D breast): 37.4 µM

CC1(C)CC(=O)c2c(nc3ccc4ccccc4c3c2-c2ccc(NC(=O)CCCC(=O)Nc3ccc(-c4c5c(nc6ccc7ccccc7c46)CC(C)(C)CC5=O)cc3)cc2)C1
TGI (A498 renal): > 100 µM
TGI (COLO 205 colon): > 100 µM
TGI (EKVX NSCLC): > 100 µM
TGI (HCT-116 colon): > 100 µM
TGI (IGROV1 ovarian): > 100 µM
TGI (KM12 colon): > 100 µM
TGI (MDA-MB-231 breast): > 100 µM
TGI (MDA-N): > 100 µM
TGI (MOLT-4 leukemia): > 100 µM
TGI (NCI-H23 lung): > 100 µM
TGI (PC-3 prostate): > 100 µM
TGI (RPMI-8226 leukemia): > 100 µM
TGI (SF-295 CNS): > 100 µM
TGI (SK-MEL-28 melanoma): > 100 µM
TGI (SK-OV-3 ovarian): > 100 µM
TGI (SNB-19 CNS): > 100 µM
TGI (SW-620 colon): > 100 µM
TGI (T-47D breast): > 100 µM

Cc1cc(C)c(C2=NOC(c3ccccc3)(c3cc(=O)n(-c4ccccc4)s3)O2)c(C)c1 (stereo not given)
TGI (A498 renal): > 100 µM
TGI (COLO 205 colon): 63.4 µM
TGI (EKVX NSCLC): 50.2 µM
TGI (HCT-116 colon): > 100 µM
TGI (IGROV1 ovarian): > 100 µM
TGI (KM12 colon): > 100 µM
TGI (MDA-MB-231 breast): 95 µM
TGI (MDA-N): > 100 µM
TGI (MOLT-4 leukemia): > 100 µM
TGI (NCI-H23 lung): 53.4 µM
TGI (PC-3 prostate): > 100 µM
TGI (RPMI-8226 leukemia): > 100 µM
TGI (SF-295 CNS): > 100 µM
TGI (SK-MEL-28 melanoma): 94.4 µM
TGI (SK-OV-3 ovarian): > 100 µM
TGI (SNB-19 CNS): > 100 µM
TGI (SW-620 colon): > 100 µM
TGI (T-47D breast): 44 µM

COc1ccc(NC(=O)CC(=O)N2N=C(C)C(N=Nc3ccc(S(=O)(=O)c4ccc(N=NC5C(=O)N(C(=O)CC(=O)Nc6ccc(OC)cc6)N=C5C)cc4)cc3)C2=O)cc1 (stereo not given)
TGI (A498 renal): > 100 µM
TGI (COLO 205 colon): > 100 µM
TGI (EKVX NSCLC): > 100 µM
TGI (HCT-116 colon): > 100 µM
TGI (IGROV1 ovarian): > 100 µM
TGI (KM12 colon): > 100 µM
TGI (MDA-MB-231 breast): > 100 µM
TGI (MDA-N): > 100 µM
TGI (MOLT-4 leukemia): > 100 µM
TGI (NCI-H23 lung): > 100 µM
TGI (PC-3 prostate): > 100 µM
TGI (RPMI-8226 leukemia): > 100 µM
TGI (SF-295 CNS): > 100 µM
TGI (SK-MEL-28 melanoma): > 100 µM
TGI (SK-OV-3 ovarian): > 100 µM
TGI (SNB-19 CNS): > 100 µM
TGI (SW-620 colon): > 100 µM
TGI (T-47D breast): > 100 µM
